Several values for one entry are separate records, joined by “and”; a condition that tells them apart may be missing. Identical values can stand only once. Marks after values point to notes of the source that are not given here.
Columns and labels:
[1] = Chemical stability in 1.0 M NaHCO3 and 1.0 M HCl
[2] = Metabolic stability in human microsomes; format: in vitro ADME; conditions: for Metabolic stability in human microsomes: 37 °C, 0.5 mg/mL protein, 1 μM compound, 1 mM NADPH; for Comment on microsome assay: Table S3
[3] = Solubility, screen method, phosphate buffer pH 7.4, 1% DMSO; format: physicochemical; conditions: phosphate buffer with 1% DMSO; 100 mM phosphate buffer pH 7.4, 1% DMSO; assay range 0.1 to 100 μM
[4] = Plasma stability in human plasma; format: in vitro ADME; conditions: for half-life at 1 μM / remaining at 12 s, 1 μM / remaining at 5 min, 1 μM / remaining at 10 min, 1 μM / remaining at 0.5 h, 1 μM / remaining at 1 h, 1 μM / remaining at 2 h, 1 μM / remaining at 4 h, 1 μM: human, pooled human plasma; for half-life at 1 μM: 37 °C, read-out: T ½ in human plasma; for remaining at 12 s, 1 μM: 0.2 min (first sample, reference); for remaining at 0.5 h, 1 μM: 30 min; for remaining at 1 h, 1 μM: 60 min; for remaining at 2 h, 1 μM: 120 min; for remaining at 4 h, 1 μM: 240 min; for degradation in human plasma: sampling at 5 min and later
Text: It should be noted that esterase-labile compounds are notoriously difficult to study in microsomal stability studies.[36]
(§1) Materials for experiments described in the supporting information (solubility) […]
(§2) Dimethylsulfoxide (DMSO) CHROMASOLV™ Plus, >99.7%
(§3) Acetonitrile (MeCN) LiChrosolv, hypergrade for LC-MS, Merck Chemicals
(§4) Formic acid (HCOOH) For LC-MS, Carlo-Erba
(§5) Water > 18MΩcm quality (Milli-Q, Millipore
(§6) Di-sodium-hydrogenphoshate dihydrate Merck
(§7) Sodium-dihydrogenphosphate monohydrate Merck
(§8) Autosampler Agilent 1260 Multisampler, G7167A
(§9) Gradient LC-pump Agilent 1260 Flexible Pump, G7104C
(§10) Analytical Flow 0.5 mL/min
(§11) Analytical column Luna® Omega 1.6 µm Polar C18 100Å, 50 x 2.1 mm
(§12) Injection volume 3.0 µL (15 µL for “high” injection of buffer sample) […]
(§13) Mobile phase A H2O/MeCN/Formic acid 95/5/0.1
(§14) Mobile phase B H2O/MeCN/Formic acid 5/95/0.1
(§15) Materials and analytical parameters for FT-ICR-MALDI-HRMS
(§16) The high-resolution mass spectrometry (HR-MS) experiments were performed using a MALDI-Fourier-transform ion cyclotron resonance (FTICR) (7T solariX XR-2ω, Bruker Daltonics) mass spectrometer equipped with a Smartbeam II 2 kHz laser. Briefly, a stock solution (1mg/ml) of the compound 5 was prepared and mixed 1:1 with a matrix solution containing DHB (40 mg/ml) in 50% ACN (0.02% TFA). 1 µl of the mixed solution was spotted onto MPTP MALDI target plate (Bruker Daltonics) and dried at room temperature. The instrument was tuned for optimal detection of small molecules (m/z 86–500) in positive polarity using the quadrature phase detection (QPD) (2ω) mode. The method was calibrated with red phosphorus over the mass range and DHB matrix ion [2M–2H2O+H]+ m/z 273.039364 was used as lock mass.
(§17) Incubation samples. 10 mM stock solutions of test compounds in DMSO were used to prepare 100 μM solutions by dilution in EtOH/water 25/75 (v/v). 6 μL of the 100 μM solution was spiked into 594 μL pre-warmed plasma at 37 °C giving a final concentration of 1 μM. The incubation tube was then mixed on a vortex. A sample (60 μL) was taken and added to an Eppendorf tube containing 180 μL acetonitrile. The tube was thoroughly mixed with a vortex. The precipitated sample was then treated with centrifugation (10.000 g, 10 minutes, 18 °C), 150 μL of the supernatant was mixed with 450 μL water directly into a LC-vial (glass). This step was repeated for every time point. The first time point was approximately taken 15-20 seconds after spiking.
(§18) Other timepoints were 5,10, 30, 60, 120, 240 minutes. Pre-precipitated samples. 594 μL of pre-warmed plasma was precipitated with 1800 μL ACN. 6 μL of the 100 μM solution was spiked into the precipitated plasma. 1 mL was removed and added to an Eppendorf tube. After a centrifugation step (10.000 g, 10 minutes, 18 °C), 150 μL of the supernatant was mixed with 450 μL water directly into a LC-vial (glass).
(§19) Metabolic stability in human microsomes
(§20) The assay was run at 37°C with a microsomal protein concentration of 0.5 mg/mL and a compound concentration of 1 μM in a 0.1 M potassium phosphate buffer at pH 7.4. The compounds were added to the microsome suspension whereafter the enzymatic reaction was initiated by the addition of the co-factor NADPH, giving a final NADPH concentration of 1 mM (Table 9). Samples […]
(§21) Plasma stability. The compounds were incubated separately at a concentration of 1 μM in +37°C pre-warmed pooled human plasma from commercial resources. The incubations were performed over a four-hour period with the first sample taken after addition of the compounds to plasma followed by a thorough mixing, with further sampling at 5, 10, and 30 minutes as well as 1,

[5] = Compounds in pre-precipitated (inactivated) plasma; format: in vitro ADME, human; conditions: for % found in incubation plasma at time 0.2 min: peak area in incubation plasma versus pre-precipitated plasma; for degradation in inactivated plasma: plasma pretreated with acetonitrile
Procedure: as §1, §2, §3, §4, §5, §6, §7, §8, §9, §10, §11, §12, §13, §14, §15
as §16, with “mass. The compound was identified with sub ppm mass accuracy and specific isotopic pattern of boron in its molecular structure.” for “mass.”
as §17, §18, §19, §20
Table S6 Time-dependent decline in concentration of five compounds for in vitro plasma stability in human plasma and […]
as §21, with “1, 2, and 4 hours. The samples were analyzed by LC-MS/MS using relative peak areas for the calculations of the time-dependent […]” for “1,”
Table S7 Comparison of peak area in incubation plasma after addition and mixing with pre-precipitated plasma. […]

[6] = Stability in simulated stomach acid (0.10 M HCl); conditions: 0.10 M HCl (simulated stomach acid)
porcine liver esterase = test: Stability in FaSSIF supplemented with esterase; conditions: for % prodrug remaining, measured after 1 min: after 1 min at 20 IU/mL; for predicted half-life: at 270 IU/mL; for predicted abs.: calculated remaining prodrug available for GI absorption, predicted level after 5 min at 270 IU/mL (% remaining prodrug); for half-life at 0.292 mM: pig, FaSSIF supplemented with porcine liver esterase (20 IU/mL); for % prodrug remaining, no esterase 30 min: after 30 min with no esterase

Structure (SMILES)	half-life at 5 mM ([1]; 1.0 M HCl) [h]	Metabolic stability in human microsomes [2]	solubility [3] [µM]	half-life at 1 μM [4] [h]	remaining at 12 s, 1 μM [4] [%]	remaining at 5 min, 1 μM [4] [%]	remaining at 10 min, 1 μM [4] [%]	remaining at 0.5 h, 1 μM [4] [%]	remaining at 1 h, 1 μM [4] [%]	remaining at 2 h, 1 μM [4] [%]	remaining at 4 h, 1 μM [4] [%]	degradation in human plasma [4]	% found in incubation plasma at time 0.2 min [5] [%]	degradation in inactivated plasma [5]	half-life at 5 mM [6] [h]	% prodrug remaining, measured after 1 min (porcine liver esterase) [%]	predicted half-life (porcine liver esterase) [s]	predicted abs. (porcine liver esterase)	half-life at 0.292 mM (porcine liver esterase) [s]	half-life at 24 h, 5 mM ([1]; 1.0 M NaHCO3) [h]	further results
CN(C)CCc1c[nH]c2cccc(OCc3ccccc3)c12 [Compound 3, 4-Benzyloxy-N,N-dimethyltryptamine]	> 167	43 μL/min/mg protein and 44 μL/min/mg protein	> 90	> 8	100	103	103	105	111	110	107	no degradation was observed	115	fairly stable	> 167	–	–	–	–	–	half-life at 5 mM ([1]; 1.0 M NaHCO3): > 167 h
CC(=O)Oc1cccc2[nH]cc(CCN(C)C)c12.O=C(O)/C=C/C(=O)O [Compound 4a, 4-acetoxy-N,N-dimethyltryptamine]	–	>200^a μL/min/mg protein and >200 μL/min/mg protein	77	< 0.0833	100	0.2	0.2	0.2	0.2	0.1	0.2	almost no compound remained	9.8	heavily degraded	> 167	47	4.2	6.2 × 10^–21	54.6 ± 6	15	half-life at 24 h, 5 mM ([1]; 1.0 M HCl): 5 h; Comment on microsome assay [2]: Rapid degradation
CN(C)CCc1c[nH]c2cccc(OC(=O)C3CC3)c12.O=C(O)/C=C/C(=O)O [Compound 4g]	–	>200^a μL/min/mg protein and >200 μL/min/mg protein	> 90	< 0.0833	100	1.5	0.1	0	0	0	0	almost no compound remained	90	fairly stable	> 167	57	5.4	1.9 × 10^–15	73.2 ± 2.4	183	% prodrug remaining, no esterase 30 min (porcine liver esterase): 100%; half-life at 24 h, 5 mM ([1]; 1.0 M HCl): 100 h; Comment on microsome assay [2]: Rapid degradation
CCOC(=O)Oc1cccc2[nH]cc(CCN(C)C)c12.O=C(O)/C=C/C(=O)O [Compound 4i]	> 167	>200^a μL/min/mg protein and >200 μL/min/mg protein	88	< 0.0833	100	0	0	0	0	0	0	almost no compound remained	17	heavily degraded	> 167	28	2.4	2.6 × 10^–35	33.6 ± 7.2	50	% prodrug remaining, no esterase 30 min (porcine liver esterase): 100%; Comment on microsome assay [2]: Rapid degradation
CN(C)CCc1c[nH]c2cccc(OP(=O)(O)O)c12 [Compound 8, 4-phosphoryloxy-N,N-dimethyltryptamine, reference compound]	> 167	<10/<10^b μL/min/mg protein and <10 μL/min/mg protein	–	> 8	100	135	–	130	122	127	122	no degradation was observed	67	fairly stable	> 167	–	–	–	–	250	–

Reference: article PMC11997985, “Synthesis and In Vitro Profiling of Psilocin Derivatives: Improved Stability and Synthetic Properties” (Journal of Medicinal Chemistry, 2025)
